Measured values from paper PMC10336128, “In vitro efficacy of different PEGylation designs on cathelicidin-like peptide with high antibacterial and antifungal activity” (Scientific Reports, 2023).
Where two headings read alike, the source gives them in different places. No end group written: not given here.

Tests used:
[1] = tested on: S. aureus ATCC 25923; assay: microbe, parasite or virus in culture; type: cell-based, Staphylococcus aureus
Description: (§1) Staphylococcus aureus (S. aureus ATCC 25923), Escherichia coli (E. coli ATCC 25922), Pseudomonas aeruginosa (P. aeruginosa ATCC 27853), Candida albicans (C. albicans ATCC 10231), methicillin-resistant S. aureus (MRSA, ATCC 33591) and vancomycin-resistant Enteroccus faecium (VRE-faecium, ATCC BAA-2316) were grown in MHA at 37 °C, overnight. A colony was then selected and transferred to MHB. Each bacterial solution in the MHB was adjusted to 0.5 McFarland with OD600 value between 0.08 and 0.1 using UV–Vis spectrophotometer (NanoDrop™ One/OneC Microvolume, Thermo Scientific). Afterward, 0.5 McFarland bacteria cultures were diluted in MHB at a ratio of 1:100. The peptide/conjugate concentration was quantified using a UV–Vis spectrophotometer at 214 nm. Serial dilutions of peptide and conjugates (1024–0.5 µg/mL) were prepared in MHB with a total volume of 95 µL in a round-bottom 96-well plate. Of the prepared bacterial suspensions, 5 µL was added into sample dilutions in each prepared well. Ampicillin (GeneMark) was used as a positive control and bacterial solution alone was used as a negative control. All 96-well plates were incubated overnight at 37 °C, and all samples were prepared in triplicate. Then, samples were measured at 600 nm using a microplate reader (Gen5 Synergy HT BioTek, USA)[31].

[2] = MTT cytotoxicity assay; type: cell-based; settings: for CC50 at 24 h: human, HaCaT keratinocyte cells; for IC50 at 24 h: mouse
Description: Human skin keratinocyte (HaCaT, HEKa, PCS-200-011™, ATCC) and mouse embryonic fibroblast (3T3, CRL-1658™, ATCC) cells were counted to 5 × 10^4 cells/well in 100 µL of DMEM containing 10% FBS, and 1% Pen/Strep antibiotics were placed in a flat-bottom 96-well plate and incubated in 5% CO2 at 37 °C. After 24 h, the medium on the attached cells was discarded. Serial peptide/conjugate dilutions (1024–0.5 µg/mL) prepared in complete DMEM (100 µL of total volume) in triplicate were added to the cell-seeded plates and incubated in 5% CO2 at 37 °C for 24 h. Cytotoxicity was determined using the 3-(4, 5-dimethylthiazol-2-yl)-2, 5-diphenyltetrazolium bromide assay kit (MTT, Cell Proliferation Kit, Roche) following the kit procedure and measured at 550 nm and 690 nm using a microplate reader. Cytotoxicity was calculated according to the cell control samples in complete DMEM.

[3] = tested on: human erythrocytes; assay: Cell-associated hemolytic activity assay (with S. aureus ATCC 25923); type: cell-based; settings: human erythrocytes plus S. aureus ATCC 25923 (5 µL of 1.5 × 10^6 CFU/mL), tris-saline, 37 °C, read at 414 nm, three replicates
Description: (§2) 300 µL of fresh human blood (Acibadem Mehmet Ali Aydinlar University, Istanbul, Turkey) was suspended in 20 mL of sterile tris-saline (150 mM NaCl, 10 mM Tris, pH 7.2) solution and centrifuged 3 times at 1500 rpm for 5 min. Pellet was dissolved with 100 mL of tris-saline and 100 µL blood mix was added into each well of a round-bottom 96-well plate. Serial peptide/conjugate dilutions (1024–0.5 µg/mL) prepared in tris-saline (100 µL of total volume) in triplicate were added on top of the blood mix. 10% DMSO prepared in Triton X-100 treated with blood mix used as a positive control, and the blood mix itself was used as a negative control. The samples were kept on separate round-bottom 96-well plates at 37 °C for 30 min and 1 h, respectively, to examine two different conditions. After incubations, the 96-well plates were centrifuged at 1500 rpm for 10 min. The supernatants were then transferred into a new round-bottom 96-well plate for measurement at 414 nm using a microplate reader. The lysis percentage of the peptide/conjugate was calculated using Eq. (1) as follows:1 Hemolysis%=Sample414nm-Negativecontrol414nm/Positivecontrol414nm-Negativecontrol414nm×100
S. aureus ATCC 25923 bacterial solution in MHB was prepared as in the minimum inhibitory concentration (MIC) experiment. […]

[4] = tested on: plasma proteases; type: in vitro ADME, human
Description: To separate human plasma, EDTA-treated fresh human blood from a healthy donor (Acibadem Mehmet Ali Aydinlar University, Istanbul, Turkey) was centrifuged at 1500 rpm for 5 min, and the supernatant was collected. The peptide and conjugates were mixed with human plasma to a final concentration of 0.1 mg/mL (1.7 µL, 2048 µg/mL sample completed with plasma) and incubated at 37 °C, 1500 rpm in a shaker. Aliquots were collected after 0 h, 6 h, and 24 h incubation and stored at – 20 °C[32]. 5 µL protease inhibitor was added onto 35 µL aliquots.
S. aureus ATCC 25923 was cultured in MHA overnight at 37 °C. A colony was then selected and transferred to MHB. The bacterial solution was adjusted to 0.5 McFarland with OD600 value between 0.08 and 0.1 using UV–Vis spectrophotometer and diluted to a 1:200 ratio in MHB. 5 µL of the bacterial suspension was added into serial dilutions of aliquots prepared in MHB (40 µL of total volume) in a round-bottom 96-well plate and incubated overnight at 37 °C. Afterward, 96-well plates were measured at 600 nm using a microplate reader. All samples were prepared in triplicate.

[5] = tested on: human erythrocytes; assay: Hemolytic activity assay; type: cell-based
Description: as §2

[6] = tested on: C. albicans ATCC 10231; assay: microbe, parasite or virus in culture; type: cell-based, Candida albicans
Description: as §1

[7] = tested on: MRSA ATCC 33591; assay: microbe, parasite or virus in culture; type: cell-based, methicillin-resistant S. aureus
Description: as §1

[8] = tested on: VRE-faecium ATCC BAA-2316; assay: organism not typed; type: cell-based, vancomycin-resistant Enteroccus faecium
Description: as §1

[9] = tested on: E. coli ATCC 25922; assay: microbe, parasite or virus in culture; type: cell-based, Escherichia coli
Description: as §1

[10] = tested on: P. aeruginosa ATCC 27853; assay: microbe, parasite or virus in culture; type: cell-based, Pseudomonas aeruginosa
Description: as §1

## RLLRLLLRLLR-NH2 [TN6]
[1]; ATCC 25923
  Minimum Inhibitory Concentration: 1 µg/mL
[2]
  CC50 at 24 h: 161 µg/mL
  IC50 at 24 h: 14.6 µg/mL
[3]
  HC50, 60 min with S. aureus ATCC 25923: hemotoxic effect at all doses
[4]; 0 h
  MIC after plasma proteases, 0 h: 2.56 µg/mL
[4]; 6 h
  MIC after plasma proteases, 6 h: 2.56 µg/mL
[4]; 24 h
  MIC after plasma proteases, 24 h: 5.12 µg/mL
[5]; human erythrocytes in tris-saline pH 7.2, 60 min, 37 °C, without bacteria, read at 414 nm, three replicates
  HC50 (dose killing 50% of the red blood cells), 60 min: hemotoxic effect at all doses
[5]; pH 7.2
  HC50 (dose killing 50% of the red blood cells), 60 min: toxic even at 1 µg/mL
  hemolysis, 30 min: well above the toxic dose (HC50)
[6]; ATCC 10231
  Minimum Inhibitory Concentration: 1 µg/mL
[7]; ATCC 33591
  Minimum Inhibitory Concentration: 0.78 µg/mL
[8]; ATCC BAA-2316
  Minimum Inhibitory Concentration: 1.56 µg/mL
[9]; ATCC 25922
  Minimum Inhibitory Concentration: 1 µg/mL
[10]; ATCC 27853
  Minimum Inhibitory Concentration: 4 µg/mL

## CC1(C)S[C@@H]2[C@H](NC(=O)[C@H](N)c3ccccc3)C(=O)N2[C@H]1C(=O)O [Ampicillin, reference compound]
[1]; Staphylococcus aureus, ATCC25923, S. aureus ATCC 25923, serial dilution in MHB, 96-well, overnight 37 °C, OD 600 nm, triplicate, same results in all replicates, mass of whole conjugate, read-out: Minimum Inhibitory Concentration
  MIC: 8 µg/mL
[6]; Candida albicans, ATCC10231, C. albicans ATCC 10231, serial dilution in MHB, 96-well, overnight 37 °C, OD 600 nm, triplicate, same results in all replicates, mass of whole conjugate, read-out: Minimum Inhibitory Concentration
  MIC: 16 µg/mL
[7]; Staphylococcus aureus, MRSA ATCC 33591, serial dilution in MHB, 96-well, overnight 37 °C, OD 600 nm, triplicate, same results in all replicates, mass of whole conjugate, read-out: Minimum Inhibitory Concentration
  MIC: 32 µg/mL
[8]; VRE-faecium ATCC BAA-2316, serial dilution in MHB, 96-well, overnight 37 °C, OD 600 nm, triplicate, same results in all replicates, mass of whole conjugate, read-out: Minimum Inhibitory Concentration
  MIC: 16 µg/mL
[9]; Escherichia coli, ATCC25922, E. coli ATCC 25922, serial dilution in MHB, 96-well, overnight 37 °C, OD 600 nm, triplicate, same results in all replicates, mass of whole conjugate, read-out: Minimum Inhibitory Concentration
  MIC: 32 µg/mL
[10]; Pseudomonas aeruginosa, ATCC27853, P. aeruginosa ATCC 27853, serial dilution in MHB, 96-well, overnight 37 °C, OD 600 nm, triplicate, same results in all replicates, mass of whole conjugate, read-out: Minimum Inhibitory Concentration
  MIC: 256 µg/mL

## GIGKFLHSAKKFGKAFVGEIMNS [Mag-2, reference compound]
[2]; HaCaT cells, MTT, 24 h, 37 °C, DMEM 10% FBS, three replicates, maximum concentration tested 512 µg/mL, mass of whole conjugate, read-out: inhibitory concentration (IC50), cytotoxicity
  CC50 at 24 h: 258 µg/mL
[2]; 3T3 cells, MTT, 24 h, 37 °C, DMEM 10% FBS, three replicates, mass of whole conjugate, read-out: inhibitory concentration (IC50), cytotoxicity
  IC50 at 24 h: 153 µg/mL
